Laboratory results from patent US10519152B2, “Compounds and their use in treating cancer” (AstraZeneca AB, priority 2017, dated 2019).

Molecular target: T1, Estrogen Receptor (ERα) in MCF-7 human ductal carcinoma breast cell line (Homo sapiens, UniProt P03372)
T1 construct: endogenous in cells; host or cells: MCF-7
T1 sequence (P03372 1-595): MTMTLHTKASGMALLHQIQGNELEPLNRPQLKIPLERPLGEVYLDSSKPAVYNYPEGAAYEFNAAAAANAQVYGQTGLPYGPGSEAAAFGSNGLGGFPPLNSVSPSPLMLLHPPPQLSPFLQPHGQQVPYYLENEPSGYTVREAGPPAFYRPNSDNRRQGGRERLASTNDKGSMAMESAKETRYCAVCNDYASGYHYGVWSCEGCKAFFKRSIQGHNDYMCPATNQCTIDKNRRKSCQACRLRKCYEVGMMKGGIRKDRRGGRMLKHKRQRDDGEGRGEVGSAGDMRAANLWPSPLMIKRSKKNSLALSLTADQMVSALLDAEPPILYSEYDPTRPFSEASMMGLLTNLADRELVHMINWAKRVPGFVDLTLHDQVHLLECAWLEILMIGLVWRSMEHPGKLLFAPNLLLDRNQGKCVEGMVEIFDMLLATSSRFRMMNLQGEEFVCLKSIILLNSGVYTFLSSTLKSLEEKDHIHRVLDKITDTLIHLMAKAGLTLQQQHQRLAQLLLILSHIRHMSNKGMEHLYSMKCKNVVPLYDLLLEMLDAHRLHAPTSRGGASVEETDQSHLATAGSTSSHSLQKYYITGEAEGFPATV
Experiment: MCF-7 ER degradation assay (cell based immuno-fluorescence)
Details: MCF-7 cells; for ER degradation ≥ 90% at 0.3 μM: ER degradation by fulvestrant at 0.3 μM is defined as 100%; for DC50: 18-22 hours incubation, 50% reduction of ERα expression, single experiment or average of two or more, read-out: MCF-7 ER degradation IC50
Summary of the method: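 MCF-7 human ductal carcinoma breast cells were seeded at 3.75×10^4 cells per mL (40 μL per well) in 384 well plates with phenol red free DMEM containing 2 mM L-Glutamine and 5% (v/v) Charcoal/Dextran treated foetal calf serum. After overnight culture, compounds were acoustically dispensed, incubated 18-22 hours, then cells were formaldehyde-fixed and immunostained for ERα.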

Cc1ncsc1-c1ccc([C@H](C)NC(=O)[C@@H]2C[C@@H](O)CN2C(=O)[C@@H](NC(=O)COCCCCCOCCOc2cc(F)c([C@@H]3c4[nH]c5ccccc5c4C[C@@H](C)N3CC(C)(C)F)c(F)c2)C(C)(C)C)cc1 [Example 157, (2S,4R)-1-((S)-2-(2-((5-(2-(3,5-Difluoro-4-((1R,3R)-2-(2-fluoro-2-methylpropyl)-3-methyl-2,3,4,9-tetrahydro-1H-pyrido[3,4-b]indol-1-yl)phenoxy)ethoxy)pentyl)oxy)acetamido)-3,3-dimethylbutanoyl)-4-hydroxy-N—((S)-1-(4-(4-methylthiazol-5-yl)phenyl)ethyl)pyrrolidine-2-carboxamide]
ER degradation ≥ 90% at 0.3 μM: •• | DC50: 0.4 nM

Cc1ncsc1-c1ccc(CNC(=O)[C@@H]2C[C@@H](O)CN2C(=O)[C@@H](NC(=O)COCCc2ccc(COc3cc(F)c([C@@H]4c5[nH]c6ccccc6c5C[C@@H](C)N4CC(C)(C)F)c(F)c3)nc2)C(C)(C)C)cc1 [Example 158, (2S,4R)-1-((S)-2-(2-(2-(6-((3,5-Difluoro-4-((1R,3R)-2-(2-fluoro-2-methylpropyl)-3-methyl-2,3,4,9-tetrahydro-1H-pyrido[3,4-b]indol-1-yl)phenoxy)methyl)pyridin-3-yl)ethoxy)acetamido)-3,3-dimethylbutanoyl)-4-hydroxy-N-(4-(4-methylthiazol-5-yl)benzyl)pyrrolidine-2-carboxamide]
ER degradation ≥ 90% at 0.3 μM: • | DC50: 0.8 nM

Cc1ncsc1-c1ccc([C@H](C)NC(=O)[C@@H]2C[C@@H](O)CN2C(=O)[C@@H](NC(=O)COCCc2ccc(COc3cc(F)c([C@@H]4c5[nH]c6ccccc6c5C[C@@H](C)N4CC(C)(C)F)c(F)c3)nc2)C(C)(C)C)cc1 [Example 159, (2S,4R)-1-((S)-2-(2-(2-(6-((3,5-Difluoro-4-((1R,3R)-2-(2-fluoro-2-methylpropyl)-3-methyl-2,3,4,9-tetrahydro-1H-pyrido[3,4-b]indol-1-yl)phenoxy)methyl)pyridin-3-yl)ethoxy)acetamido)-3,3-dimethylbutanoyl)-4-hydroxy-N—((S)-1-(4-(4-methylthiazol-5-yl)phenyl)ethyl)pyrrolidine-2-carboxamide]
ER degradation ≥ 90% at 0.3 μM: •• | DC50: 0.5 nM

Cc1ncsc1-c1ccc(CNC(=O)[C@@H]2C[C@@H](O)CN2C(=O)[C@@H](NC(=O)CCCOc2ccc(COc3cc(F)c([C@@H]4c5[nH]c6ccccc6c5C[C@@H](C)N4CC(C)(C)F)c(F)c3)nc2)C(C)(C)C)cc1 [Example 161, (2S,4R)-1-((S)-2-(4-((6-((3,5-Difluoro-4-((1R,3R)-2-(2-fluoro-2-methylpropyl)-3-methyl-2,3,4,9-tetrahydro-1H-pyrido[3,4-b]indol-1-yl)phenoxy)methyl)pyridin-3-yl)oxy)butanamido)-3,3-dimethylbutanoyl)-4-hydroxy-N-(4-(4-methylthiazol-5-yl)benzyl)pyrrolidine-2-carboxamide]
ER degradation ≥ 90% at 0.3 μM: • | DC50: 1.2 nM

Cc1ncsc1-c1ccc(CNC(=O)[C@@H]2C[C@@H](O)CN2C(=O)[C@@H](NC(=O)CCCOc2cccc(COc3cc(F)c([C@@H]4c5[nH]c6ccccc6c5C[C@@H](C)N4CC(C)(C)F)c(F)c3)n2)C(C)(C)C)cc1 [Example 162, (2S,4R)-1-((S)-2-(4-((6-((3,5-Difluoro-4-((1R,3R)-2-(2-fluoro-2-methylpropyl)-3-methyl-2,3,4,9-tetrahydro-1H-pyrido[3,4-b]indol-1-yl)phenoxy)methyl)pyridin-2-yl)oxy)butanamido)-3,3-dimethylbutanoyl)-4-hydroxy-N-(4-(4-methylthiazol-5-yl)benzyl)pyrrolidine-2-carboxamide]
ER degradation ≥ 90% at 0.3 μM: • | DC50: 1.8 nM

Cc1ncsc1-c1ccc(CNC(=O)[C@@H]2C[C@@H](O)CN2C(=O)[C@@H](NC(=O)COCCOCCCCCOc2cnc([C@@H]3c4[nH]c5ccccc5c4C[C@@H](C)N3CC(C)(F)F)c(F)c2)C(C)(C)C)cc1 [Example 164, (2S,4R)-1-((S)-2-(2-(2-((5-((6-((1S,3R)-2-(2,2-Difluoropropyl)-3-methyl-2,3,4,9-tetrahydro-1H-pyrido[3,4-b]indol-1-yl)-5-fluoropyridin-3-yl)oxy)pentyl)oxy)ethoxy)acetamido)-3,3-dimethylbutanoyl)-4-hydroxy-N-(4-(4-methylthiazol-5-yl)benzyl)pyrrolidine-2-carboxamide]
ER degradation ≥ 90% at 0.3 μM: •• | DC50: 4.2 nM

Cc1ncsc1-c1ccc(CNC(=O)[C@@H]2C[C@@H](O)CN2C(=O)[C@@H](NC(=O)COCCOCCCCCOc2cnc([C@@H]3c4[nH]c5ccccc5c4C[C@@H](C)N3CC(F)(F)F)c(F)c2)C(C)(C)C)cc1 [Example 165, (2S,4R)-1-((S)-2-(2-(2-((5-((5-Fluoro-6-((1S,3R)-3-methyl-2-(2,2,2-trifluoroethyl)-2,3,4,9-tetrahydro-1H-pyrido[3,4-b]indol-1-yl)pyridin-3-yl)oxy)pentyl)oxy)ethoxy)acetamido)-3,3-dimethylbutanoyl)-4-hydroxy-N-(4-(4-methylthiazol-5-yl)benzyl)pyrrolidine-2-carboxamide]
ER degradation ≥ 90% at 0.3 μM: •• | DC50: 4.4 nM

Cc1ncsc1-c1ccc(CNC(=O)[C@@H]2C[C@@H](O)CN2C(=O)[C@@H](NC(=O)COCCOCCCCCOc2cc(F)c([C@@H]3c4[nH]c5ccccc5c4C[C@@H](C)N3CC(C)(F)F)c(F)c2)C(C)(C)C)cc1 [Example 166, (2S,4R)-1-((S)-2-(2-(2-((5-(4-((1R,3R)-2-(2,2-Difluoropropyl)-3-methyl-2,3,4,9-tetrahydro-1H-pyrido[3,4-b]indol-1-yl)-3,5-difluorophenoxy)pentyl)oxy)ethoxy)acetamido)-3,3-dimethylbutanoyl)-4-hydroxy-N-(4-(4-methylthiazol-5-yl)benzyl)pyrrolidine-2-carboxamide]
ER degradation ≥ 90% at 0.3 μM: •• | DC50: 0.8 nM

Cc1ncsc1-c1ccc(CNC(=O)[C@@H]2C[C@@H](O)CN2C(=O)[C@@H](NC(=O)COCCOCCCCCOc2cc(F)c([C@@H]3c4[nH]c5ccccc5c4C[C@@H](C)N3CC(F)F)c(F)c2)C(C)(C)C)cc1 [Example 167, (2S,4R)-1-((S)-2-(2-(2-((5-(4-((1R,3R)-2-(2,2-Difluoroethyl)-3-methyl-2,3,4,9-tetrahydro-1H-pyrido[3,4-b]indol-1-yl)-3,5-difluorophenoxy)pentyl)oxy)ethoxy)acetamido)-3,3-dimethylbutanoyl)-4-hydroxy-N-(4-(4-methylthiazol-5-yl)benzyl)pyrrolidine-2-carboxamide]
ER degradation ≥ 90% at 0.3 μM: •• | DC50: 0.6 nM
